Reference: PubChem BioAssay AID2060910 (Molecular Pharmacology Branch, DTP, NCI, 2025)
“And” between values parts separate entries of the source, which are not always exact repeats. Equal values may be shown once. Blank lines part the entries; values can stand above or below the compound they belong to.

Tested on: 242566-281-R-J2-PDC complex spheroid viability
Assay: Anticancer human tumor 242566-281-R-J2-PDC patient-derived pancreatic carcinoma cell line growth inhibition [RAS]
Settings: for viability, T/C: stronger effect = lower value
Summary of the method: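 Multi-cell-type spheroids: tumor cells plus HUVEC endothelial cells and mesenchymal stem cells. RAS-pathway inhibitors were combined with targeted agents, each dosed in half-log steps down from clinical Cmax, or from 10 microM when Cmax was unknown.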

[1] = curve of first compound, second compound 0.00316 µM
[2] = curve of first compound, second compound 0.01 µM
[3] = curve of first compound, second compound 0.0316 µM
[4] = curve of first compound, second compound 0.1 µM
[5] = curve of first compound, second compound 0.316 µM
[6] = curve of first compound, second compound 1 µM
[7] = second compound 0.00316 µM, first compound 0.000949 µM
[8] = second compound 0.00316 µM, first compound 0.003 µM
[9] = second compound 0.00316 µM, first compound 0.00949 µM
[10] = second compound 0.00316 µM, first compound 0.03 µM
[11] = second compound 0.00316 µM, first compound 0.0949 µM
[12] = second compound 0.00316 µM, first compound 0.3 µM
[13] = second compound 0.01 µM, first compound 0.000949 µM
[14] = second compound 0.01 µM, first compound 0.003 µM
[15] = second compound 0.01 µM, first compound 0.00949 µM
[16] = second compound 0.01 µM, first compound 0.03 µM
[17] = second compound 0.01 µM, first compound 0.0949 µM
[18] = second compound 0.01 µM, first compound 0.3 µM
[19] = second compound 0.0316 µM, first compound 0.000949 µM
[20] = second compound 0.0316 µM, first compound 0.003 µM
[21] = second compound 0.0316 µM, first compound 0.00949 µM
[22] = second compound 0.0316 µM, first compound 0.03 µM
[23] = second compound 0.0316 µM, first compound 0.0949 µM
[24] = second compound 0.0316 µM, first compound 0.3 µM
[25] = second compound 0.1 µM, first compound 0.000949 µM
[26] = second compound 0.1 µM, first compound 0.003 µM
[27] = second compound 0.1 µM, first compound 0.00949 µM
[28] = second compound 0.1 µM, first compound 0.03 µM
[29] = second compound 0.1 µM, first compound 0.0949 µM
[30] = second compound 0.1 µM, first compound 0.3 µM
[31] = second compound 0.316 µM, first compound 0.000949 µM
[32] = second compound 0.316 µM, first compound 0.003 µM
[33] = second compound 0.316 µM, first compound 0.00949 µM
[34] = second compound 0.316 µM, first compound 0.03 µM
[35] = second compound 0.316 µM, first compound 0.0949 µM
[36] = second compound 0.316 µM, first compound 0.3 µM
[37] = second compound 1 µM, first compound 0.000949 µM
[38] = second compound 1 µM, first compound 0.003 µM
[39] = second compound 1 µM, first compound 0.00949 µM
[40] = second compound 1 µM, first compound 0.03 µM
[41] = second compound 1 µM, first compound 0.0949 µM
[42] = second compound 1 µM, first compound 0.3 µM
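Note: spheroids exposed to compound for 7 days before readout.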
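Throughout, for viability, T/C: 100% = DMSO vehicle control wells.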

SMILES: CC(C)NCC(C(=O)N1CCN(c2ncnc3c2C(C)CC3O)CC1)c1ccc(Cl)cc1 (stereo unspecified) + C#Cc1c(F)ccc2cc(O)cc(-c3ncc4c(N5CC6CCC(C5)N6)nc(OCC56CCCN5CC(F)C6)nc4c3F)c12
- IC50 [3]: 7270 nM
- IC50 [4]: 2950 nM
- IC50 [5]: 1750 nM
- IC50 [6]: 701 nM
- IC50 (curve of first compound, second compound 3.16 µM): 404 nM
- IC50 (curve of first compound, second compound 10 µM): 392 nM
- viability, T/C (second compound 0.0316 µM, first compound 0.0316 µM): 74.9%
- viability, T/C (second compound 0.0316 µM, first compound 0.1 µM): 116%
- viability, T/C (second compound 0.0316 µM, first compound 0.316 µM): 86.2%
- viability, T/C (second compound 0.0316 µM, first compound 1 µM): 84.8%
- viability, T/C (second compound 0.0316 µM, first compound 3.16 µM): 66.6%
- viability, T/C (second compound 0.0316 µM, first compound 10 µM): 43.7%
- viability, T/C (second compound 0.1 µM, first compound 0.0316 µM): 97.8%
- viability, T/C (second compound 0.1 µM, first compound 0.1 µM): 78.6%
- viability, T/C (second compound 0.1 µM, first compound 0.316 µM): 74.5%
- viability, T/C (second compound 0.1 µM, first compound 1 µM): 54.8%
- viability, T/C (second compound 0.1 µM, first compound 3.16 µM): 58%
- viability, T/C (second compound 0.1 µM, first compound 10 µM): 34.5%
- viability, T/C (second compound 0.316 µM, first compound 0.0316 µM): 81.2%
- viability, T/C (second compound 0.316 µM, first compound 0.1 µM): 81.1%
- viability, T/C (second compound 0.316 µM, first compound 0.316 µM): 64.9%
- viability, T/C (second compound 0.316 µM, first compound 1 µM): 55%
- viability, T/C (second compound 0.316 µM, first compound 3.16 µM): 45.8%
- viability, T/C (second compound 0.316 µM, first compound 10 µM): 23.9%
- viability, T/C (second compound 1 µM, first compound 0.0316 µM): 71.8%
- viability, T/C (second compound 1 µM, first compound 0.1 µM): 68.3%
- viability, T/C (second compound 1 µM, first compound 0.316 µM): 59.4%
- viability, T/C (second compound 1 µM, first compound 1 µM): 41.4%
- viability, T/C (second compound 1 µM, first compound 3.16 µM): 37.5%
- viability, T/C (second compound 1 µM, first compound 10 µM): 18.4%
- viability, T/C (second compound 3.16 µM, first compound 0.0316 µM): 62.8%
- viability, T/C (second compound 3.16 µM, first compound 0.1 µM): 64.2%
- viability, T/C (second compound 3.16 µM, first compound 0.316 µM): 53.9%
- viability, T/C (second compound 3.16 µM, first compound 1 µM): 34.5%
- viability, T/C (second compound 3.16 µM, first compound 3.16 µM): 24.8%
- viability, T/C (second compound 3.16 µM, first compound 10 µM): 16.4%
- viability, T/C (second compound 10 µM, first compound 0.0316 µM): 61.6%
- viability, T/C (second compound 10 µM, first compound 0.1 µM): 59.6%
- viability, T/C (second compound 10 µM, first compound 0.316 µM): 52.7%
- viability, T/C (second compound 10 µM, first compound 1 µM): 38.1%
- viability, T/C (second compound 10 µM, first compound 3.16 µM): 22%
- viability, T/C (second compound 10 µM, first compound 10 µM): 14.3%

SMILES: CCc1c2c(nc3ccc(O)cc13)-c1cc3c(c(=O)n1C2)COC(=O)[C@]3(O)CC + C=CC(=O)N1CCN(c2nc(OCC3CCCN3C)nc3c(F)c(-c4nc(N)cc(C)c4C(F)(F)F)c(Cl)cc23)C(C)C1
- IC50 [1]: 31.6 nM
- IC50 [2]: 34.8 nM
- IC50 [3]: 48.8 nM
- IC50 [4]: 34.5 nM
- IC50 [5]: 40.9 nM
- IC50 [6]: 50.8 nM
- viability, T/C [7]: 94%
- viability, T/C [8]: 121%
- viability, T/C [9]: 84.4%
- viability, T/C [10]: 51%
- viability, T/C [11]: 27.1%
- viability, T/C [12]: 13.1%
- viability, T/C [13]: 103%
- viability, T/C [14]: 133%
- viability, T/C [15]: 82.4%
- viability, T/C [16]: 56.1%
- viability, T/C [17]: 26.9%
- viability, T/C [18]: 12.3%
- viability, T/C [19]: 112%
- viability, T/C [20]: 132%
- viability, T/C [21]: 83.3%
- viability, T/C [22]: 67.1%
- viability, T/C [23]: 32.3%
- viability, T/C [24]: 11.8%
- viability, T/C [25]: 111%
- viability, T/C [26]: 129%
- viability, T/C [27]: 104%
- viability, T/C [28]: 54%
- viability, T/C [29]: 23.1%
- viability, T/C [30]: 16%
- viability, T/C [31]: 105%
- viability, T/C [32]: 137%
- viability, T/C [33]: 77.1%
- viability, T/C [34]: 63.7%
- viability, T/C [35]: 28.8%
- viability, T/C [36]: 14.7%
- viability, T/C [37]: 104%
- viability, T/C [38]: 114%
- viability, T/C [39]: 86.7%
- viability, T/C [40]: 66%
- viability, T/C [41]: 32.7%
- viability, T/C [42]: 10.9%

More lines, main results first:

- IC50 [1]: > 300 nM
- IC50 [2]: > 300 nM
- IC50 [3]: > 300 nM
- IC50 [4]: > 300 nM
- IC50 [5]: > 300 nM
- IC50 [6]: > 300 nM
SMILES: CC1(C)CCC(Nc2ncc(C(F)(F)F)c(-c3c[nH]c4c(P(C)(C)=O)c(C#N)ccc34)n2)CN1 (stereo unspecified) + C=CC(=O)N1CCN(c2nc(OCC3CCCN3C)nc3c(F)c(-c4nc(N)cc(C)c4C(F)(F)F)c(Cl)cc23)C(C)C1
- viability, T/C [7]: 109%
- viability, T/C [8]: 161%
- viability, T/C [9]: 154%
- viability, T/C [10]: 128%
- viability, T/C [11]: 146%
- viability, T/C [12]: 135%
- viability, T/C [13]: 137%
- viability, T/C [14]: 151%
- viability, T/C [15]: 142%
- viability, T/C [16]: 124%
- viability, T/C [17]: 158%
- viability, T/C [18]: 129%
- viability, T/C [19]: 114%
- viability, T/C [20]: 173%
- viability, T/C [21]: 133%
- viability, T/C [22]: 113%
- viability, T/C [23]: 138%
- viability, T/C [24]: 132%
- viability, T/C [25]: 151%
- viability, T/C [26]: 130%
- viability, T/C [27]: 103%
- viability, T/C [28]: 137%
- viability, T/C [29]: 138%
- viability, T/C [30]: 144%
- viability, T/C [31]: 152%
- viability, T/C [32]: 144%
- viability, T/C [33]: 147%
- viability, T/C [34]: 109%
- viability, T/C [35]: 143%
- viability, T/C [36]: 149%
- viability, T/C [37]: 130%
- viability, T/C [38]: 139%
- viability, T/C [39]: 142%
- viability, T/C [40]: 123%
- viability, T/C [41]: 128%
- viability, T/C [42]: 121%

- IC50 (curve of compound): 50.9 nM and > 100 nM and 52.5 nM
SMILES: CC(C)n1nc(-c2ccc3oc(N)nc3c2)c2c(N)ncnc21
- viability, T/C (compound 0.000316 µM): 104% [middle of 4 runs]
- viability, T/C (compound 0.001 µM): 102% [middle of 4 runs]
- viability, T/C (compound 0.01 µM): 85.6% [middle of 4 runs]
- viability, T/C (compound 0.0316 µM): 63.6% [middle of 4 runs]
- viability, T/C (compound 0.1 µM): 60.3% [middle of 4 runs]

- IC50 (curve of compound): > 1000 nM
SMILES: CCN1CCN(Cc2ccc(Nc3ncc(F)c(-c4cc(F)c5nc(C)n(C(C)C)c5c4)n3)nc2)CC1
- viability, T/C (compound 0.00316 µM): 102% [middle of 4 runs]
- viability, T/C (compound 0.0316 µM): 102% [middle of 4 runs]
- viability, T/C (compound 0.1 µM): 99.1% [middle of 4 runs]
